# Measured values: US6737383B1, “Herbicidal oxadiazolidines” (priority 1999, dated 2004)
# Key:
# [1] = system: purple nutsedge; test: Test B pre/postemergence purple nutsedge; assay type: in vivo, Cyperus rotundus
# Summary of the method: (§1)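 Response is a visual 0-to-10 score relative to untreated plants, where 0 means no effect and 10 means complete control, taken twelve to sixteen days after application. Treatments went onto soil at planting and onto foliage of 1- to 4-leaf plants, using a surfactant-containing non-phytotoxic solvent.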
# [2] = system: bedstraw; test: Test B pre/postemergence bedstraw; assay type: in vivo, Galium aparine
# Summary of the method: as §1
# [3] = system: blackgrass; test: Test B pre/postemergence blackgrass; assay type: in vivo, Alopecurus myosuroides
# Summary of the method: as §1
# [4] = system: wild oat; test: Test B pre/postemergence wild oat; assay type: in vivo, Avena fatua
# Summary of the method: as §1
# [5] = system: surinam grass; test: Test B pre/postemergence surinam grass; assay type: in vivo, Brachiaria decumbens
# Summary of the method: as §1
# [6] = system: crabgrass; test: Test B pre/postemergence crabgrass; assay type: in vivo, Digitaria sanguinalis
# Summary of the method: as §1
# [7] = system: corn; test: Test B pre/postemergence corn; assay type: in vivo, Zea mays
# Summary of the method: as §1
# [8] = system: rape; test: Test B pre/postemergence rape; assay type: in vivo, Brassica napus
# Summary of the method: as §1
# [9] = system: wheat; test: Test B pre/postemergence wheat; assay type: in vivo, Triticum aestivum
# Summary of the method: as §1
# [10] = system: soybean; test: Test B pre/postemergence soybean; assay type: in vivo, Glycine max
# Summary of the method: as §1
# [11] = system: sugar beet; test: Test B pre/postemergence sugar beet; assay type: in vivo, Beta vulgaris
# Summary of the method: as §1
# [12] = system: giant foxtail; test: Test B pre/postemergence giant foxtail; assay type: in vivo, Setaria faberii
# Summary of the method: as §1
# [13] = system: cocklebur; test: Test B pre/postemergence cocklebur; assay type: in vivo, Xanthium strumarium
# Summary of the method: as §1
# [14] = system: velvetleaf; test: Test B pre/postemergence velvetleaf; assay type: in vivo, Abutilon theophrasti
# Summary of the method: as §1
# [15] = system: pigweed; test: Test B pre/postemergence pigweed; assay type: in vivo, Amaranthus retroflexus
# Summary of the method: as §1
# [16] = system: morningglory; test: Test B pre/postemergence morningglory; assay type: in vivo, Ipomoea hederacea
# Summary of the method: as §1
# [17] = Postemergence, Rate 62 g/ha, scale 0 to 10, 0 is no effect, 10 is complete control
# [18] = Postemergence, Rate 125 g/ha, scale of 0 to 10 where 0 is no effect and 10 is complete control
# [19] = Preemergence, Rate 125 g/ha, scale of 0 to 10 where 0 is no effect and 10 is complete control
# [20] = Preemergence, Rate 250 g/ha, scale 0 (no effect) to 10 (complete control)
# [21] = Rate 62 g/ha, Preemergence, scale 0 to 10
# [22] = Rate 250 g/ha, Postemergence, scale 0 to 10, 0 is no effect, 10 is complete control
# [23] = Rate 500 g/ha, Postemergence, scale 0 to 10, 0 is no effect, 10 is complete control
# [24] = Rate 500 g/ha, Preemergence, scale 0 to 10 (0 no effect, 10 complete control)
compound,measurement,setting,value
CC(C)N(C(=O)n1oc(=O)n(C[C@H](C)Cl)c1=O)c1ccccc1 [Compound 747],"Plant response rating, Nutsedge",[1]; [17],0
same,Nutsedge plant response rating,[1]; [18],0
same,"Plant response rating, Nutsedge",[1]; [19],2
same,Nutsedge plant response rating,[1]; [20],4
same,Nutsedge plant response rating,[1]; [21],0
same,Nutsedge plant response rating,[1]; [22],0
same,Nutsedge plant response rating,[1]; [23],0
same,Nutsedge plant response rating,[1]; [24],2
same,"Plant response rating, Bedstraw",[2]; [17],8
same,Bedstraw plant response rating,[2]; [18],8
same,"Plant response rating, Bedstraw",[2]; [19],0
same,Bedstraw plant response rating,[2]; [21],0
same,Bedstraw plant response rating,[2]; [24],0
same,"Plant response rating, Blackgrass",[3]; [17],5
same,Blackgrass plant response rating,[3]; [18],7
same,"Plant response rating, Blackgrass",[3]; [19],8
same,Blackgrass plant response rating,[3]; [21],8
same,Blackgrass plant response rating,[3]; [22],8
same,Blackgrass plant response rating,[3]; [23],8
same,Blackgrass plant response rating,[3]; [24],8
same,"Plant response rating, Wild oats",[4]; [17],0
same,Wild oats plant response rating,[4]; [18],0
same,Wild oats plant response rating,[4]; [20],3
same,Wild oats plant response rating,[4]; [21],3
same,Wild oats plant response rating,[4]; [22],2
same,Wild oats plant response rating,[4]; [23],2
same,"Plant response rating, B. signalgrass",[5]; [17],1
same,B. signalgrass plant response rating,[5]; [18],3
same,B. signalgrass plant response rating,"[5]; Preemergence, Rate 62 g/ha, scale of 0 to 10 where 0 is no effect and 10 is complete control",7
same,"Plant response rating, B. signalgrass",[5]; [19],8
same,B. signalgrass plant response rating,[5]; [22],4
same,B. signalgrass plant response rating,[5]; [23],6
same,B. signalgrass plant response rating,[5]; [24],9
same,"Plant response rating, Crabgrass",[6]; [17],3
same,Crabgrass plant response rating,[6]; [18],9
same,"Plant response rating, Crabgrass",[6]; [19],10
same,Crabgrass plant response rating,[6]; [20],10
same,Crabgrass plant response rating,[6]; [21],10
same,Crabgrass plant response rating,[6]; [22],9
same,Crabgrass plant response rating,[6]; [23],9
same,Crabgrass plant response rating,[6]; [24],10
same,"Plant response rating, Corn",[7]; [17],0
same,Corn plant response rating,[7]; [18],0
same,"Plant response rating, Corn",[7]; [19],2
same,Corn plant response rating,[7]; [20],6
same,Corn plant response rating,[7]; [21],2
same,Corn plant response rating,[7]; [22],4
same,Corn plant response rating,[7]; [23],5
same,Corn plant response rating,[7]; [24],9
same,"Plant response rating, Rape",[8]; [17],4
same,Rape plant response rating,[8]; [18],4
same,"Plant response rating, Rape",[8]; [19],9
same,Rape plant response rating,[8]; [20],10
same,Rape plant response rating,[8]; [21],7
same,Rape plant response rating,[8]; [22],4
same,Rape plant response rating,[8]; [23],9
same,"Plant response rating, Wheat",[9]; [17],0
same,Wheat plant response rating,[9]; [18],0
same,Wheat plant response rating,[9]; [20],0
same,Wheat plant response rating,[9]; [21],0
same,Wheat plant response rating,[9]; [22],4
same,Wheat plant response rating,[9]; [23],4
same,"Plant response rating, Soybean",[10]; [17],4
same,Soybean plant response rating,[10]; [18],4
same,"Plant response rating, Soybean",[10]; [19],0
same,Soybean plant response rating,[10]; [20],0
same,Soybean plant response rating,[10]; [21],0
same,Soybean plant response rating,[10]; [22],7
same,Soybean plant response rating,[10]; [23],8
same,Soybean plant response rating,[10]; [24],9
same,"Plant response rating, Sugarbeets",[11]; [17],0
same,Sugarbeets plant response rating,[11]; [18],0
same,"Plant response rating, Sugarbeets",[11]; [19],6
same,Sugarbeets plant response rating,[11]; [20],7
same,Sugarbeets plant response rating,[11]; [21],4
same,Sugarbeets plant response rating,[11]; [22],0
same,Sugarbeets plant response rating,[11]; [23],3
same,"Plant response rating, Giant foxtail",[12]; [17],8
same,Giant foxtail plant response rating,[12]; [18],9
same,"Plant response rating, Giant foxtail",[12]; [19],10
same,Giant foxtail plant response rating,[12]; [20],10
same,Giant foxtail plant response rating,[12]; [21],10
same,Giant foxtail plant response rating,[12]; [22],9
same,Giant foxtail plant response rating,[12]; [23],9
same,Giant foxtail plant response rating,[12]; [24],10
same,"Plant response rating, Cocklebur",[13]; [17],0
same,Cocklebur plant response rating,[13]; [18],0
same,Cocklebur plant response rating,[13]; [20],0
same,Cocklebur plant response rating,[13]; [21],0
same,Cocklebur plant response rating,[13]; [22],2
same,Cocklebur plant response rating,[13]; [23],4
same,Cocklebur plant response rating,[13]; [24],0
same,"Plant response rating, Velvetleaf",[14]; [17],0
same,Velvetleaf plant response rating,[14]; [18],4
same,"Plant response rating, Velvetleaf",[14]; [19],6
same,Velvetleaf plant response rating,[14]; [20],7
same,Velvetleaf plant response rating,[14]; [21],4
same,Velvetleaf plant response rating,[14]; [22],4
same,Velvetleaf plant response rating,[14]; [23],7
same,Velvetleaf plant response rating,[14]; [24],7
same,"Plant response rating, Redroot pigweed",[15]; [17],4
same,Redroot pigweed plant response rating,[15]; [18],4
same,Redroot pigweed plant response rating,[15]; [20],8
same,Redroot pigweed plant response rating,[15]; [21],8
same,Redroot pigweed plant response rating,[15]; [22],7
same,Redroot pigweed plant response rating,[15]; [23],8
same,"Plant response rating, Morningglory",[16]; [17],2
same,Morningglory plant response rating,[16]; [18],9
same,"Plant response rating, Morningglory",[16]; [19],0
same,Morningglory plant response rating,[16]; [20],0
same,Morningglory plant response rating,[16]; [21],0
same,Morningglory plant response rating,[16]; [22],10
same,Morningglory plant response rating,[16]; [23],10
same,Morningglory plant response rating,[16]; [24],7
